{
  "source": "ChEMBL document CHEMBL3638596",
  "about": "“Protease inhibitors” (2014)",
  "key": {"[1]": {"biological_target": "T1, Cathepsin K (Homo sapiens, UniProt P43235)", "T1 sequence (P43235 whole entry)": "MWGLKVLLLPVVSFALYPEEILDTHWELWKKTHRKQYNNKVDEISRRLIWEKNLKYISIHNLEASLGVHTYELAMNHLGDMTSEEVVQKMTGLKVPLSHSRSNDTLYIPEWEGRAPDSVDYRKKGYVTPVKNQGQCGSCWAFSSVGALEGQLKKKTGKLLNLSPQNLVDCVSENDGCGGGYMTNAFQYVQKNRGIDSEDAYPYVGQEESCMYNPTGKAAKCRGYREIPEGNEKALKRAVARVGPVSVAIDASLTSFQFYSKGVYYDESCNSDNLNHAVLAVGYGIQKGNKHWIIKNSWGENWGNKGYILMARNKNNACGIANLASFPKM", "assay": "Enzyme Assay: Standard assay conditions for the determination of kinetic constants used a fluorogenic peptide substrate, typically H-D-Ala-Leu-Lys-AMC, and were determined in either 100 mM Mes/Tris, pH 7.0 containing 1 mM EDTA and 10 mM 2-mercaptoethanol or 100 mM Na phosphate, imM EDTA, 0.1% PEG4000 pH 6.5 or 100 mM Na acetate, pH 5.5 containing 5 mM EDTA and 20 mM cysteine, in each case optionally with […] as stabiliser. The enzyme concentration used was 5 nM. The stock substrate solution was prepared at 10 mM in DMSO. Screens were carried out at a fixed substrate concentration of 60 μM and detailed kinetic studies with doubling dilutions of substrate from 250 μM. The total DMSO concentration in the assay was kept below 3%. All assays were conducted at ambient temperature. Product fluorescence (excitation at 390 nm, emission at 460 nm) was monitored with a Labsystems Fluoroskan Ascent fluorescent plate reader."}, "[2]": {"biological_target": "Cathepsin S (Homo sapiens, UniProt P25774)", "sequence (P25774 whole entry)": "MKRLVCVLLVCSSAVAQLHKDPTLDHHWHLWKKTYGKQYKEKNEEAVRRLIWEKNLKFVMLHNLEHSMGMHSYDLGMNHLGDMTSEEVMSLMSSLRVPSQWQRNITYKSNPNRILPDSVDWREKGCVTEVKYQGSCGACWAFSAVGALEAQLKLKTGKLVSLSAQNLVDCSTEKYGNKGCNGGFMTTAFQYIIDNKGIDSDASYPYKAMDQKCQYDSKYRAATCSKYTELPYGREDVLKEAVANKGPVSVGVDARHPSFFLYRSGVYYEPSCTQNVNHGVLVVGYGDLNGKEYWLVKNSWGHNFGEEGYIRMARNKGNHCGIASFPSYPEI", "assay": "Enzyme Assay: The assay uses baculovirus-expressed human cathepsin S and the boc-Val-Leu-Lys-AMC fluorescent substrate available from Bachem in a 384 well plate format, in which 7 test compounds can be tested in parallel with a positive control comprising a known cathepsin S inhibitor comparator. […] 2 μl of each 10 mM test compound is added to a separate well on row A, columns 1-10. Add 90 μl assay buffer containing 1 mM DTT and 2 nM cathepsin S to each well of rows B-H and 180 μl to row A."}},
  "note": "pKi: −log10 of the molar value.",
  "data": [
    {"compound": "C#C[C@@H]1CN(C(=O)[C@@H](NC(=O)c2ccc(-c3nc(N4CCN(C)CC4)sc3F)cc2)C2CCCC2)[C@@H]2C(=O)CO[C@H]12", "values": [
      {"measurement": "pKi", "setting": "[1]", "value": 9.22},
      {"measurement": "pKi", "setting": "[2]", "value": 5.54}
    ]}
  ]
}
